Experimental data as given in patent US20210024499A1, “OXIDIZED BIS(3-INDOLYL)METHANES AND USES THEREOF” (Sanford Burnam Prebys Medical Discovery Institute, priority 2018, published 2021).

Key:
HCT116 cancer cells = test: Cell viability (MTT) assay, HCT116; type: cell-based; conditions: Homo sapiens, HCT-116; inhibiting the growth of HCT116 cancer cells, cell viability assay (Table 5)
Procedure: Cell viability was analyzed by using a colorimetric 3-(4,5-dimethylthiazol-[…]2-yl)-2,5-diphenyletetrazolium Bromide (MTT) assay that determines mitochondrial dehydrogenase activities in the living cells with a colorimetric method. Cells treated with test compounds were incubated with MTT and their effect on the viability of the cells was assayed by the ability of treated cells to reduce the yellow tetrazolium dye MTT to its insoluble formazan, which has a purple color. […]

GFP-Nur77 = GFP-Nur77 (Homo sapiens, UniProt P22736); test: GFP-Nur77 localization in transfected HEK293T cells; type: cell-based; conditions: HEK293T cells transfected with GFP-Nur77, 0.5 μM
Procedure: Cells were fixed in 3.7% paraformaldehyde. For mitochondrial staining, cells were incubated with anti-Hsp60 goat immunoglobulin G (IgG) (Santa Cruz Biotechnology, Santa Cruz, Calif.), followed by anti-goat IgG conjugated with Cy3. The nuclei were visualized by DAPI staining. Fluorescent images were collected and analyzed by using a fluorescence microscopy or MRC-1024 MP laser-scanning confocal microscope (Bio-Rad, Hercules, Calif.).
To confirm the effect of Compound 1 on Nur77 cytoplasmic localization, HEK293T cells were transfected with GFP-Nur77 and subsequently treated with 0.5 μM Compound 1.

MDA-MB-231 cells = test: PARP cleavage assay (Western blotting), MDA-MB-231; type: cell-based; conditions: 0.5 μM, 6 hours
Description: (§1) Compound 1a had no effect under the same conditions (FIG. 1A). […] Compound 1a, 28a, 47a, 48a, 73a, 39a, 70a, 103a, 89a and 88a had no effect under the same conditions (FIG. 3B-C).

MEFs [1] = test: Cell viability (MTT), MEFs; type: cell-based, mouse; conditions: 6 hours, MTT (FIG. 8)
Procedure: (§2) Cell viability was analyzed by using a colorimetric 3-(4,5-dimethylthiazol-[…]2-yl)-2,5-diphenyletetrazolium Bromide (MTT) assay that determines mitochondrial dehydrogenase activities in the living cells with a colorimetric method. Cells treated with test compounds were incubated with MTT and their effect on the viability of the cells was assayed by the ability of treated cells to reduce the yellow tetrazolium dye MTT to its insoluble formazan, which has a purple color.
(§3) The apoptotic effect of Compound 1 was examined in mouse embryonic fibroblast (MEF) and MEF lacking Nur77 (Nur77^−/−MEF). […] Induction of PARP cleavage (as performed in Example A-7) in MEFs by Compound 1 at 0.5 μM was also attenuated in Nur77^−/−MEFs.

SW620 xenograft tumor = test: SW620 xenograft nude mouse study; type: in vivo, BALB/c nude mice
Procedure: Male BALB/c nude mice (6 weeks old) were subcutaneously injected with log growth-phase of SW620 cells (1×10^6 cells in 0.1 ml PBS). Mice were treated orally after 7 days of transplantation with Compound 1 once a day. Body weight and tumor size were measured every 3 days. Tumors were measured and weighted. Tissues isolated from the nude mice were fixed with 4% paraformaldehyde. TdT-mediated dUTP nick end labeling assay was performed according to the manufacturer's instructions (In situ Cell Death Detection Kit; Roche).

[2] = molecular target: T1, Nur77-LBD interaction with GST-Bcl-2 (Homo sapiens, UniProt P22736); test: GST-pull down of Nur77-LBD by GST-Bcl-2; type: binding; conditions: in vitro, GST-Bcl-2, FIG. 11
T1 construct: incubated with purified His-Nur77-LBD (0.2 mg) in the presence of Compound 1; made in house
Procedure: GST or GST-Bcl-2 fusion protein (0.5 mg) was immobilized on glutathione-Sepharose beads and incubated with purified His-Nur77-LBD (0.2 mg) in the presence of Compound 1 for 1 hour at room temperature to promote GST-Bcl-2 interaction with His-Nur77-LBD. Bound Nur77-LBD was analyzed by Western blotting.

Bcl-2−/− HeLa cells = test: Mitochondrial ROS, Bcl-2 knockout HeLa; type: cell-based
Procedure: (§4) Loss of mitochondrial membrane potential (Avm) represents one of the hallmarks of apoptosis. A JC-1 probe was employed to measure mitochondrial depolarization in cancer cells. MDA-MB-231 breast cancer cells were treated with different concentration of test compounds for 6 hours. JC-1 staining solution (5 μg/ml) was added at 37° C. for 20 min. After washing with PBS twice, mitochondrial membrane potentials were monitored by determining the relative amounts of dual emission from a multiple fluorescence reader. The fluorescence in cells was quantitatively analyzed by flow cytometry. Mitochondrial depolarization is depicted by an increase in the green/red fluorescence intensity ratio. ROS were monitored with the oxiadtion-senstive fluorescent probe 2′7′-dichlorodihydroflurescenin diacetate (DCF-DA).
(§5) In addition, Bcl-2^−/−HeLa cells were more resistant than the parental HeLa cells to Compound 1 in its induction of the mitochondrial membrane potential loss measured by JC1 staining and in the release of mitochondrial ROS (as performed in Example A-12).

Nur77−/−MEFs = test: Cell viability (MTT), Nur77-/- MEFs; type: cell-based, mouse; conditions: 6 hours, MTT (FIG. 8)
Procedure: as §2, §3

Bcl-2−/−MEF cells = test: Mitochondrial ROS, Bcl-2-/- MEF; type: cell-based, mouse
Procedure: as §4
In addition, Bcl-2^−/−MEF cells were more resistant than the parental MEF cells to Compound 1 in its induction of the mitochondrial membrane potential loss measured by JC1 staining and in the release of mitochondrial ROS (as performed in Example A-12).

HCT116 cells = test: PARP cleavage assay (Western blotting), HCT116; type: cell-based; conditions: 6 hours
Description: as §1

MEFs [3] = test: DAPI staining for apoptosis, MEFs; type: cell-based, mouse; conditions: 0.5 μM
Description: The apoptotic effect of Compound 1 was also examined in mouse embryonic fibroblast (MEF) and MEF lacking Bcl-2 (Bcl-2^−/−MEF). […] Apoptotic cells were counted in 200 cells.

[4] = tested on: non-transfected HEK293T cells; test: Apoptosis in non-transfected HEK293T cells (confocal microscopy); type: cell-based
Description: The ligand-binding domain (LBD) of Nur77, Nur77-LBD, was transfected into HEK293T cells. Transfection of Nur77-LBD enhanced the apoptotic effect of Compound 1, with 36% of the transfected HEK293T cells undergoing apoptosis, while 4.5% of the non-transfected cells were apoptotic, as measured by confocal microscopy.

HeLa cells = test: Mitochondrial membrane potential (JC1), HeLa; type: cell-based; conditions: 6 h
Procedure: as §4
Furthermore, Nur77^−/−HeLa cells were more resistant than the parental HeLa cells to Compound 1 in its induction of the mitochondrial membrane potential loss measured by JC1 staining and in the release of mitochondrial ROS (as performed in Example A-12).
as §5

Bcl-2−/−HeLa cells = test: Mitochondrial membrane potential (JC1), Bcl-2 knockout HeLa; type: cell-based; conditions: 0.5 μM, 6 h
Procedure: as §4, §5

GFP-Nur77, sequence (P22736 whole entry): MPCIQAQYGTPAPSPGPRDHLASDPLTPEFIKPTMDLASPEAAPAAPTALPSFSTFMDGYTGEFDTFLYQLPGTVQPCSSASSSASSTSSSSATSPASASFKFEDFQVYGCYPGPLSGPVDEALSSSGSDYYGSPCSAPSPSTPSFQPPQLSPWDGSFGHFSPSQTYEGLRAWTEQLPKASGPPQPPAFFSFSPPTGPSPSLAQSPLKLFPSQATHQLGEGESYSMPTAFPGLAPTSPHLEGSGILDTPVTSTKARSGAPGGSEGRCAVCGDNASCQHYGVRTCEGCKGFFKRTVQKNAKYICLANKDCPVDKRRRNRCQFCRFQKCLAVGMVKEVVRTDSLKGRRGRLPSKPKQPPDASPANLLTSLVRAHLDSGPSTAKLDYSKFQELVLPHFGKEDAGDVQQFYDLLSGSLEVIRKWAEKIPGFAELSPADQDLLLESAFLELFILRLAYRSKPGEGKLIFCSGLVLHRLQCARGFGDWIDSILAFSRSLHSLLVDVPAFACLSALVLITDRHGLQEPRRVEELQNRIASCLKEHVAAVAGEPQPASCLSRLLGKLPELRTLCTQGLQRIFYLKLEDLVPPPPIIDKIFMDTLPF
T1 sequence (P22736 360-595 limits assumed): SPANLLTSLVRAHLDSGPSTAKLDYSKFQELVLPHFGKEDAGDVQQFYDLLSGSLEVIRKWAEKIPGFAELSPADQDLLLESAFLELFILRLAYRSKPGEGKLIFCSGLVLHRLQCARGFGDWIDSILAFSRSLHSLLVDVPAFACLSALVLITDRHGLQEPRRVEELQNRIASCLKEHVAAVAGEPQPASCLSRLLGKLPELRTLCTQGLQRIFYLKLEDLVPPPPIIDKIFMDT
T1 sequence (P10415 whole entry partner, the tested form may be a part): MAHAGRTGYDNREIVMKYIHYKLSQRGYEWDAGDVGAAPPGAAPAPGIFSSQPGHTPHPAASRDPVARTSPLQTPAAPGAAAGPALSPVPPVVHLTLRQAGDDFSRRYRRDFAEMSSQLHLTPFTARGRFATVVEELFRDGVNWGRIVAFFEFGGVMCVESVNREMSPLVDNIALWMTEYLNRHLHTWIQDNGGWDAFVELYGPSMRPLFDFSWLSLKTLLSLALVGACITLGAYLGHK

## FC(F)(F)c1ccc([C+](c2c[nH]c3ccccc23)c2c[nH]c3ccccc23)cc1 [Compound 1, Bis(1H-indol-3-yl)(4-(trifluoromethyl)phenyl)methylium methanesulfonate]
HCT116 cancer cells
  IC50: < 500 nM
GFP-Nur77
  GFP-Nur77 subcellular localization: diffusely distributed in both the cytoplasm and nucleus
MDA-MB-231 cells
  PARP cleavage: effectively induced PARP cleavage
MEFs [1]
  growth of MEFs: dose-dependently inhibited the growth of MEFs
SW620 xenograft tumor; SW620 xenograft, compared to control tumor
  apoptosis in tumor specimens (TUNEL assay): extensive apoptosis
SW620 xenograft tumor; nude mice, oral, once a day (FIGS. 6A-6B)
  growth of SW620 xenograft tumor: inhibited the growth of SW620 xenograft tumor in a dose and time-dependent manner
[2]
  Nur77-LBD pulled down (GST-pull down): concentration dependent manner
Bcl-2−/− HeLa cells
  increase in mito-ROS relative to regular HeLa cells: smaller increase
Nur77−/−MEFs
  growth inhibitory effect relative to MEFs: significantly diminished
Bcl-2−/−MEF cells
  increase in mito-ROS relative to regular MEF cells: smaller increase
HCT116 cells; 0.5 μM, Western blotting
  PARP cleavage: effectively induced PARP cleavage
HCT116 cells
  concentration inducing PARP cleavage (dose dependent study): submicromolar concentrations
MEFs [3]
  cells with chromatin condensation and nuclear fragmentation (DAPI): 40%
[4]
  apoptotic cells: 4.5%
HeLa cells; 0.5 μM
  JC1 green to red ratio (control 100%): 195%
HeLa cells; 1 μM
  JC1 green to red ratio (control 100%): 190%
Bcl-2−/−HeLa cells
  JC1 green to red ratio: no change
